Results on 12 compounds are retold here after patent US11613531B2, “Inhibitors of RHO associated coiled-coil containing protein kinase” (Kadmon Corporation, LLC, priority 2017, dated 2023).

Test [1] concerns ppMlc (T18/S19) levels in A7R5 cells. Kind of test: A7R5 in-cell ELISA (pMLC). The test is classed as cell-based, Rat. To be noted: Rattus norvegicus, A7R5, A7R5 cells; for inhibition at 1 µM: 1 μM compound; for inhibition at 1 µM / inhibition at 10 µM: read-out: pMLC % inh A7R5 @ [conc]; for inhibition at 10 µM: 10 μM compound. The method, boiled down: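 A7R5 rat aortic smooth muscle cells seeded 24 h, then treated 90 min with a 9-point 2-fold compound dilution series. Fixed cells probed for ppMlc (T18/S19) by colorimetric in-cell ELISA; cellular IC50 from nonlinear regression curve fit.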

Test [2] relates to human ACTA2 gene promoter luciferase reporter in NIH3T3 cells. As to the kind of experiment: NIH3T3 Acta2-promoter driven-luciferase assay. The test is classed as cell-based. To be noted: NIH3T3, 24 h, read-out: NIH3T3 Acta2-luc, IC50. The method, boiled down: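 NIH3T3 cells stably carrying a human ACTA2 promoter (−1000-1 bp)-luciferase reporter, grown to confluence, treated 24 hr with compound plus TGFβ1 at 9-point serial dilution. Luciferase read after lysis; IC50 by nonlinear regression.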

Test [3] has as its target Recombinant ROCK1 (amino acids 1-535) (Homo sapiens (Human), UniProt Q13464). As to the kind of experiment: Z′-Lyte kinase assay, ROCK1. As to conditions: for inhibition at 0.5 µM: 0.5 μM compound. The test is classed as biochemical. The method, boiled down: (§1)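 Recombinant human ROCK1 (aa 1-535) or ROCK2 (aa 1-552) activity read by Z′-Lyte kinase assay. Percent inhibition at 1 μM compound was normalized to DMSO control; IC50 from 9-point 2-fold serial dilutions by nonlinear regression.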

Test [4] addresses Recombinant ROCK2 (amino acids 1-552) (Homo sapiens (Human), UniProt O75116). Kind of test: Z′-Lyte kinase assay, ROCK2. Format: biochemical. As to conditions: for inhibition at 0.5 µM: 0.5 μM compound. The method in brief: as §1
The subject of a further test is Detroit 562 cells. Kind of test: Integrin αvβ6 mediated latent TGFβ activation (phospho-Smad2/3). Format: cell-based. As to conditions: with thrombin, 2 hours. On the procedure:
FIG. 5. ROCK inhibitor (Example 228) blocked integrin αvβ6 mediated latent TGFβ activation. Integrin αvβ6 positive cell line Detroit 562 cells were plated and treated with compounds in combination with parl ligand thrombin for 2 hours, lysed and activation of TGFβ signaling was detected by phosphorylation of transcription factors Smad2/3. Integrin αvβ6 mediated latent TGFβ activation requires ROCK activity (Jenkins et al., 2006). Activation of the latent TGF3 complex is a key step in regulating the biological availability of this molecule and its subsequent activities. Under tissue injury, extracellular protease cleavage of cell membrane receptor protease-activated receptor 1 (parl) leads to activation of Rho/ROCK, which in turn activates latent ECM associated TGFβ through cell membrane integrin αvβ6. […] Integrin αvβ6 positive cell line Detroit 562 cells were plated and treated with compounds in combination with parl ligand thrombin for 2 hours, lysed and activation of TGFβ signaling was detected by phosphorylation of transcription factors Smad2/3.

For test [5], the system named is CCD18lu human lung fibroblasts. As to the kind of experiment: F-actin stress fiber formation (phalloidin staining). Format: cell-based.
A further test concerns ppMLC in SVEC4-10 cells. As to the kind of experiment: Thrombin induced MLC phosphorylation western blot. The test is classed as cell-based, Mouse. As to conditions: SVEC4-10 endothelial cells, increasing doses of thrombin, 10 min. The protocol:
FIG. 7b. […] Mouse endothelial cell line SVEC4-10 cells were cultured and treated with increasing doses of thrombin in combination with ROCKi for 10 min. ppMLC signal was detected by western blot. […] Mouse endothelial cell line SVEC4-10 was cultured and treated with increasing doses of thrombin in combination with ROCK inhibitor for 10 min. ppMLC signal was detected by western blot. […] Collectively, the above data strongly supports the ROCK inhibitors of the invention as an effective intervention in fibrotic diseases.
(Immunoblotting shows a protein as a band on a membrane.)

The test system of test [6] is MKL1 in CCD18Lu human lung fibroblasts. Kind of test: MKL1 nuclear translocation, immunofluorescent staining. Format: cell-based. As to conditions: 3 μM, 3 hours. The protocol:
FIG. 3. Immunofluorescent staining of MKL1 in human lung fibroblasts. CCD18Lu human lung fibroblasts were treated with compounds for 3 hours and fixed and stained for MKL1, F-actin and DAPI. […] The Example 228 compound abolished nuclear accumulation of MKL1 in cultured human lung fibroblasts. CCD18Lu human lung fibroblasts were treated with the ROCK inhibitor (3 μM) for 3 hours and fixed and stained for MKL1, F-actin and DAPI.

[7] abbreviates: NIH3T3 cells, plus TGFβ1 for 24 hr.
The mark [8] stands for this setting: 9 points 2-fold serial dilution.
[9] abbreviates: read-out: ROCK1 % inh. @ [conc].
Where [10] appears, read: read-out: ROCK2 % inh. @ [conc].

Entries after “also recorded” stand apart in the source; their conditions may differ. Where two headings read alike, the source gives them in different places. Bounds are passed on as bounds.

Recombinant ROCK1 (amino acids 1-535), sequence (Q13464 1-535): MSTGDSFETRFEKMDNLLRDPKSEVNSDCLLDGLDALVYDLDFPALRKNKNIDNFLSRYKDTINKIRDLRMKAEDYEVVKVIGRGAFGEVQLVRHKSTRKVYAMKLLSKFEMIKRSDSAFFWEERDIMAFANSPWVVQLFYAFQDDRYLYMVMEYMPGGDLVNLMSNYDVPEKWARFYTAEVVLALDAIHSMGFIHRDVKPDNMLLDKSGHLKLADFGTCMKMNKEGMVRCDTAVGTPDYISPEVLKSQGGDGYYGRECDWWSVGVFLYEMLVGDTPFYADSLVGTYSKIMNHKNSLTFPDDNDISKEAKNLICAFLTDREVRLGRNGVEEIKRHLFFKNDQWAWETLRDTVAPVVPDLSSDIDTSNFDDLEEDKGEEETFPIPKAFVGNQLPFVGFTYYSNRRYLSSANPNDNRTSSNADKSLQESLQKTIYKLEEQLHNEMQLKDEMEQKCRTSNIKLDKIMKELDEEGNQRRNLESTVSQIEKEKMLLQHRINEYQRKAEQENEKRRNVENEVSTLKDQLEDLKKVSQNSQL
Recombinant ROCK2 (amino acids 1-552), sequence (O75116 1-552): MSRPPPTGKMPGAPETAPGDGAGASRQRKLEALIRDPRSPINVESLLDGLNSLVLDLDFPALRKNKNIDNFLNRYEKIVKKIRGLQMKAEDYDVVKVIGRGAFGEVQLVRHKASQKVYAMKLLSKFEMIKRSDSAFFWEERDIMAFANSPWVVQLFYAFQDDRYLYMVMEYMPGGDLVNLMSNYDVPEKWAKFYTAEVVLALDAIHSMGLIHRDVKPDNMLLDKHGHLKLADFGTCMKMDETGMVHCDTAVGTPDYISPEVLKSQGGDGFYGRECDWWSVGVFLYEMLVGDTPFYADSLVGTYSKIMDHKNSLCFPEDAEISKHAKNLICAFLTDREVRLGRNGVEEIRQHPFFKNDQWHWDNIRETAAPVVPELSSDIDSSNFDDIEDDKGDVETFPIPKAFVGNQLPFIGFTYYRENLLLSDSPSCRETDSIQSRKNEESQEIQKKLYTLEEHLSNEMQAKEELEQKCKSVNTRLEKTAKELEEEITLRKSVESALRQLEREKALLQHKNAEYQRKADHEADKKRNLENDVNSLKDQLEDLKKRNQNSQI

As a reminder, the IC50 is the concentration that inhibits the measured activity by half. Take `CC1CNCCN(c2ncc(F)c(Nc3ccc4[nH]ncc4c3)n2)C1` (centres unmarked) [Example 218, N-(5-fluoro-2-(6-methyl-1,4-diazepan-1-yl)pyrimidin-4-yl)-1H-indazol-5-amine]: the inhibition at 1 µM in test [1] came out at 53%; in test [4] (1 μM compound, read-out: ROCK2 % inh. @ [conc]), 99.5%. Also, the figures for the half-inhibitory concentration (IC50) in test [1] (ppMlc (T18/S19)), in test [2] (setting [7]) and in test [3] (setting [8]) were 430 nM, 6110 nM and 65 nM, respectively.
As to `Fc1cnc(N2CC3CC2CN3)nc1Nc1ccc2[nH]ncc2c1` (centres unmarked) [Example 219, N-(2-(2,5-diazabicyclo[2.2.1]heptan-2-yl)-5-fluoropyrimidin-4-yl)-1H-indazol-5-amine], the inhibition at 1 µM in test [1] was found to be 46.6%. The IC50 was 77 nM in test [1] (ppMlc (T18/S19)), 613 nM in test [2] (setting [7]), 18 nM in test [3] (setting [8]) and 41 nM in test [4] (setting [8]).
The matching figures for `Fc1cnc(N2C3CNCC2C3)nc1Nc1ccc2[nH]ncc2c1` [Example 220, N-(2-(3,6-diazabicyclo[3.1.1]heptan-6-yl)-5-fluoropyrimidin-4-yl)-1H-indazol-5-amine]: 45.1%, 74 nM, 167 nM, 3.1 nM and 5.9 nM.
As to `c1cc(Nc2ccc3[nH]ncc3c2)nc(N2C3CCC2CNC3)n1` [Example 228, N-(2-(3,8-diazabicyclo[3.2.1]octan-8-yl)pyrimidin-4-yl)-1H-indazol-5-amine], the inhibition at 10 µM in test [1] was found to be 83%. Besides, the IC50 was 69 nM in test [1] (ppMlc (T18/S19)), 151 nM in test [2] (setting [7]), 4 nM in test [3] (setting [8]) and 3 nM in test [4] (setting [8]). Moreover, in the test on Detroit 562 cells, the “integrin αvβ6 mediated latent TGFβ activation (phosphorylation of Smad2/3)” value is reported as “blocked”. Moreover, in test [5], the “F-actin stress fiber formation” value is given as “phenotypically copied gene silencing; also recorded: inhibited”. Moreover, the inhibition at 3 µM was determined as 98.5% in test [3] (3 μM compound, read-out: ROCK1 % inh. @ [conc]) and 101% in test [4] (3 μM compound, read-out: ROCK2 % inh. @ [conc]). The “thrombin induced phosphorylation of MLC” value in the test on ppMLC in SVEC4-10 cells was “potently inhibited”. The “nuclear accumulation of MKL1” value in test [6] was “abolished”. In addition, the stress fiber formation result in test [6] (F-actin staining) was “efficiently cleared”.
With `CC1CNCCN(c2nccc(Nc3ccc4[nH]ncc4c3)n2)C1` (centres unmarked) [Example 237, N-(2-(6-methyl-1,4-diazepan-1-yl)pyrimidin-4-yl)-1H-indazol-5-amine], in test [1], the inhibition at 10 µM was 68.2%. The IC50 came to 423 nM in test [1] (ppMlc (T18/S19)), 2350 nM in test [2] (setting [7]), 63 nM in test [3] (setting [8]) and 104 nM in test [4] (setting [8]).
As to `Cc1nc(N2C3CCC2CNC3)nc(Nc2ccc3[nH]ncc3c2)c1F` [Example 302, N-(2-(3,8-diazabicyclo[3.2.1]octan-8-yl)-5-fluoro-6-methylpyrimidin-4-yl)-1H-indazol-5-amine], the IC50 in test [1] came out at 35 nM; in test [2] (with TGFβ1, 24 hr), 229 nM; in test [4], 2.2 nM. For the same compound, the results for the inhibition at 0.5 µM in test [3] (setting [9]) and in test [4] (setting [10]) were 99% and 98%, respectively.
The matching figures for `CC(=O)N1Cc2nc(N3C4CCC3CNC4)nc(Nc3ccc4[nH]ncc4c3)c2C1` [Example 314, 1-(4-((1H-indazol-5-yl)amino)-2-(3,8-diazabicyclo[3.2.1]octan-8-yl)-5,7-dihydro-6H-pyrrolo[3,4-d]pyrimidin-6-yl)ethan-1-one]: over 5000 nM, over 5000 nM, 80 nM, 81% and 94%.
In the same order, the values of `c1cc(-c2cn[nH]c2)ccc1Nc1nc(N2C3CNCC2C3)nc2c1COC2` [Example 316, N-(4-(1H-pyrazol-4-yl)phenyl)-2-(3,6-diazabicyclo[3.1.1]heptan-6-yl)-5,7-dihydrofuro[3,4-d]pyrimidin-4-amine] are 2420 nM, over 10000 nM, 27 nM, 90% and 85%.
In the case of `c1cc(-c2cn[nH]c2)ccc1Nc1nc(N2C3CNCC2C3)nc2c1COCC2` [Example 317, N-(4-(1H-pyrazol-4-yl)phenyl)-2-(3,6-diazabicyclo[3.1.1]heptan-6-yl)-7,8-dihydro-5H-pyrano[4,3-d]pyrimidin-4-amine], the IC50 is over 10000 nM in test [1]; over 10000 nM in test [2] (with TGFβ1, 24 hr); 38 nM in test [4]. In addition, the values for the inhibition at 0.5 µM in test [3] (setting [9]) and in test [4] (setting [10]) were 70% and 75%, respectively.
Take `Oc1nc(N2C3CCC2CNC3)nc(Nc2ccc3[nH]ncc3c2)c1F` [Example 320, 6-((1H-indazol-5-yl)amino)-2-(3,8-diazabicyclo[3.2.1]octan-8-yl)-5-fluoropyrimidin-4-ol]: the IC50 is over 5000 nM in test [1]; over 5000 nM in test [2] (with TGFβ1, 24 hr); 8.7 nM in test [3]; 18 nM in test [4]. Also, the inhibition at 0.5 µM in test [3] (setting [9]) is 95%; in test [4] (setting [10]), 97%.
With `COc1nc(N2C3CCC2CNC3)nc(Nc2ccc3[nH]ncc3c2)c1Cl` [Example 321, N-(2-(3,8-diazabicyclo[3.2.1]octan-8-yl)-5-chloro-6-methoxypyrimidin-4-yl)-1H-indazol-5-amine], the IC50 is 74 nM in test [1]; 114 nM in test [2] (with TGFβ1, 24 hr); 8 nM in test [4]. In addition, the inhibition at 0.5 µM in test [3] (setting [9]) worked out at 98%; in test [4] (setting [10]), 100%.
For `CN(C)c1cc(Nc2ccc3[nH]ncc3c2)nc(N2C3CCC2CNC3)n1` [Example 336, 2-(3,8-diazabicyclo[3.2.1]octan-8-yl)-N^4-(1H-indazol-5-yl)-N^6,N^6-dimethylpyrimidine-4,6-diamine], the IC50 in test [1] worked out at 25 nM; in test [2] (with TGFβ1, 24 hr), 116 nM; in test [4], 3.6 nM. In addition, the inhibition at 0.5 µM came out at 99% in test [3] (setting [9]) and 103% in test [4] (setting [10]).
